{"source": "patent US20210228545A1", "about": "“METHODS OF TREATING CONDITIONS RELATED TO THE S1P1 RECEPTOR” (Arena Pharmaceuticals, Inc., priority 2018, published 2021)", "key": {"P-gp [1]": {"target": "T1, P-gp (Homo sapiens, UniProt P08183)", "T1 sequence (P08183 whole entry)": "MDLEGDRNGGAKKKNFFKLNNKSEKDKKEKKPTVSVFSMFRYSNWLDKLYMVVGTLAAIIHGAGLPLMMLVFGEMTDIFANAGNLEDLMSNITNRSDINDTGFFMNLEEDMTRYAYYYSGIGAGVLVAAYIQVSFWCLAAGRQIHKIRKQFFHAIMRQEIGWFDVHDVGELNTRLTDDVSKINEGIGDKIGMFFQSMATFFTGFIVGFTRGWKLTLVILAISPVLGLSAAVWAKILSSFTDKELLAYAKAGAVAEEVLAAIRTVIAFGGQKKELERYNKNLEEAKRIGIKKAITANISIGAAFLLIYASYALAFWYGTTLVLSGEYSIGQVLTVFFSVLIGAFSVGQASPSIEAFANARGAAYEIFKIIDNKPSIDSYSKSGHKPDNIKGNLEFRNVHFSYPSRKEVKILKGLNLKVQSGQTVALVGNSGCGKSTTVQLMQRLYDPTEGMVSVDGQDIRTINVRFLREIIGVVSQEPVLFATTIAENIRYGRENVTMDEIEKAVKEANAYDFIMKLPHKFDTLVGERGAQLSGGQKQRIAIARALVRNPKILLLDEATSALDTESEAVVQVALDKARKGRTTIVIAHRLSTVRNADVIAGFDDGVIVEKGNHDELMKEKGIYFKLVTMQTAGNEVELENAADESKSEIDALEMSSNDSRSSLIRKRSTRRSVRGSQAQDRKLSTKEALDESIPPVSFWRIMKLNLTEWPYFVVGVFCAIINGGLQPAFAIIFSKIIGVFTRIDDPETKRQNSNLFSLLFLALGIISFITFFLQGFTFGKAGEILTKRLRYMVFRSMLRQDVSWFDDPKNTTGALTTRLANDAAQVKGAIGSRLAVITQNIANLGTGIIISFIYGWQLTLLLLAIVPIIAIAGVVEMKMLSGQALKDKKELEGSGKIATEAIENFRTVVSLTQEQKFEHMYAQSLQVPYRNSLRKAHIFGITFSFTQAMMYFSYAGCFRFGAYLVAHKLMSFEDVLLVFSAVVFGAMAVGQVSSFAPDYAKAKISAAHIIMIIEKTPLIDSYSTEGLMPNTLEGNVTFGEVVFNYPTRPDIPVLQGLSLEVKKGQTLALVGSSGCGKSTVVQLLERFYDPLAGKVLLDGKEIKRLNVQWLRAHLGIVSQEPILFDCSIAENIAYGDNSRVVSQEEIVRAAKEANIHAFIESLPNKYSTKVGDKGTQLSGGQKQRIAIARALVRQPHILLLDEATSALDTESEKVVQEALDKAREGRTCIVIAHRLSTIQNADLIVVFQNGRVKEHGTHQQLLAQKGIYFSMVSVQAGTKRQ", "assay": "Transporter inhibition, Caco-2 cells"}, "P-gp [2]": {"target": "T1, P-gp", "assay": "Transporter substrate evaluation, MDCKII-P-gp cells", "type": "in vitro ADME", "design": "expressed in transfected cells; host or cells: MDCKII (Madin-Darby canine kidney) cells"}, "OCT2": {"target": "T2, OCT2 (Homo sapiens, UniProt O15244)", "T2 construct": "expressed in transfected cells; host or cells: HEK293", "T2 sequence (O15244 1-555)": "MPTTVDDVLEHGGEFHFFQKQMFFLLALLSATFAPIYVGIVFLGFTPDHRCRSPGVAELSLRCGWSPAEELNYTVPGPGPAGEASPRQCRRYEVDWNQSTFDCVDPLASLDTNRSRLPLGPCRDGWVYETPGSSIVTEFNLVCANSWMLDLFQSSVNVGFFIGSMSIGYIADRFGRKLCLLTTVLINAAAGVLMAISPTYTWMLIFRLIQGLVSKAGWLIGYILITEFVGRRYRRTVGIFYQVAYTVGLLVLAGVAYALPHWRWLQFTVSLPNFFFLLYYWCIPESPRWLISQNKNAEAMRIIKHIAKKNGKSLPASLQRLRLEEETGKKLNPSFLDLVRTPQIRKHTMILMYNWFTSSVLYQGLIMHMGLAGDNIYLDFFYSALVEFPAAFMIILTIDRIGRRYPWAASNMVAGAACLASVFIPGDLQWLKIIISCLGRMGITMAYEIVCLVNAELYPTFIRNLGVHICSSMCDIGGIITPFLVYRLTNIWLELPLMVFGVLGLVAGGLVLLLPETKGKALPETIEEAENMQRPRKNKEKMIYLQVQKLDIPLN", "assay": "Transporter inhibition, HEK293 cells", "type": "in vitro ADME", "conditions": "[14C]-metformin (10 μM), 1 and 10 μM tested"}, "[3]": {"conditions": "in vivo"}, "[4]": {"assay": "In vitro metabolism studies and human mass balance clinical study", "type": "in vivo", "conditions": "oxidative (CYP2C8, CYP2C9) and conjugation (UGT1A7, minor UGT1A1, UGT1A4) pathways", "text": "Compound 1 is eliminated from the systemic circulation mainly due to metabolism and biliary/fecal excretion."}, "CYP3A4": {"tested_on": "CYP3A4", "assay": "CYP induction in cultured human hepatocytes", "type": "in vitro ADME", "conditions": "criteria >2-fold mRNA increase and ≥20% of positive control"}, "P-gp [5]": {"target": "T1, P-gp"}, "OATP1B1": {"target": "T3, OATP1B1 (Homo sapiens, UniProt Q9Y6L6)", "T3 sequence (Q9Y6L6 1-691)": "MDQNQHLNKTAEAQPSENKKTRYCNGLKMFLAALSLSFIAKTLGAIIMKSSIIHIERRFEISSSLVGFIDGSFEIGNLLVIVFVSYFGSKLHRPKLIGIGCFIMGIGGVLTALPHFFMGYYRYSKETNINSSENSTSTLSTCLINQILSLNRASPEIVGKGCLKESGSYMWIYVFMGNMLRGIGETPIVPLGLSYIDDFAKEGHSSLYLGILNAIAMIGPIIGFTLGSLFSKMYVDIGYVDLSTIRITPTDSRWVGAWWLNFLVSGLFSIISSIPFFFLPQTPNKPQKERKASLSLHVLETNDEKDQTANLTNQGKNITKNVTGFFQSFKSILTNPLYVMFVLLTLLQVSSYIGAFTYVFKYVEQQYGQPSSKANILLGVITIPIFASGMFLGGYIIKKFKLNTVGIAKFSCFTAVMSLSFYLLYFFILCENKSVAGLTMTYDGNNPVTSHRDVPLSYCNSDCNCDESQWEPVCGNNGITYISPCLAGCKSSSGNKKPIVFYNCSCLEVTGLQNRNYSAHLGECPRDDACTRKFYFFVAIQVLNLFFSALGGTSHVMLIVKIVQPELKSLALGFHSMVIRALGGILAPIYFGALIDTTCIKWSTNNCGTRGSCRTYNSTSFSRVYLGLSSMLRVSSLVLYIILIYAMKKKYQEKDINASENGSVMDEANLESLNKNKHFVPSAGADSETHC"}, "UGT1A1": {"target": "T4, UGT1A1 (Homo sapiens, UniProt P22309)", "T4 construct": "human liver microsomes from a pool of 200 individuals; from tissue; host or cells: human liver microsomes, pool of 200 individuals", "T4 sequence (P22309 26-533)": "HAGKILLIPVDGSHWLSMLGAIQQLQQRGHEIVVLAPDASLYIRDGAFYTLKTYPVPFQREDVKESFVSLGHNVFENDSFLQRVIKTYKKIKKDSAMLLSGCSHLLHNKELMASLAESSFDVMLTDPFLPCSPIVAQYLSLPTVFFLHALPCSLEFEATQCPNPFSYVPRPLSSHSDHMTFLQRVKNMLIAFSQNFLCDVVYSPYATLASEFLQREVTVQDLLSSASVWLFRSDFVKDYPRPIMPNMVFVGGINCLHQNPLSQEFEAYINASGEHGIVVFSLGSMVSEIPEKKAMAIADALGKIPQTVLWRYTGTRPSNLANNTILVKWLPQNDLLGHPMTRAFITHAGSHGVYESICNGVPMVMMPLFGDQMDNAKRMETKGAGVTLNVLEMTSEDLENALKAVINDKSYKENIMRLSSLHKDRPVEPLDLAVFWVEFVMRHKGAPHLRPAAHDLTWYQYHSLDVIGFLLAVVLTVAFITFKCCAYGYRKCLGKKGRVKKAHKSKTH", "assay": "Direct inhibition of UGT activity in human liver microsomes", "type": "in vitro ADME", "conditions": "highest concentration tested (10 μM)", "text": "(§1) Known metabolism-dependent and/or direct inhibitors of CYP and UGT enzymes were included as positive controls, as applicable."}, "UGT1A6": {"target": "T5, UGT1A6 (Homo sapiens, UniProt P19224)", "T5 construct": "human liver microsomes from a pool of 200 individuals; from tissue; host or cells: human liver microsomes, pool of 200 individuals", "T5 sequence (P19224 27-532)": "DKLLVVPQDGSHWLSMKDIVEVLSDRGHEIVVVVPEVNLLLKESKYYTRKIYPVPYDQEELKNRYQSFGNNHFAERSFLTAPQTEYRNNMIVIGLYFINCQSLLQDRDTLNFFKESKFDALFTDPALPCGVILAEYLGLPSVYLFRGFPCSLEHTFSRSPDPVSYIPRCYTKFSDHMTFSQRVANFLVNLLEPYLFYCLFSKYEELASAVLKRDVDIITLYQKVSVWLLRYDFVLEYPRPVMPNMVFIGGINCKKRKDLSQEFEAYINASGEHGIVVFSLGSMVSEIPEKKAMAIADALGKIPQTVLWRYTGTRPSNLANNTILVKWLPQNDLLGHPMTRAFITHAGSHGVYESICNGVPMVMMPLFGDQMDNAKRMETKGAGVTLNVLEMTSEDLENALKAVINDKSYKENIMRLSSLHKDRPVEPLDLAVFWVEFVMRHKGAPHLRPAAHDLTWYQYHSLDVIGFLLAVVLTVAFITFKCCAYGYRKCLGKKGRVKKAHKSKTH", "assay": "Direct inhibition of UGT activity in human liver microsomes", "type": "in vitro ADME", "conditions": "highest concentration tested (10 μM)", "text": "as §1"}}, "note": "“Also recorded” adds a separate entry of the source.", "data": [{"molecule": "O=C(O)C[C@H]1CCc2c1[nH]c1ccc(OCc3ccc(C4CCCC4)c(C(F)(F)F)c3)cc21", "note": "[Compound 1, (R)-2-(7-(4-cyclopentyl-3-(trifluoromethyl)benzyloxy)-1,2,3,4-tetrahydrocyclopenta[b]indol-3-yl)acetic acid]", "values": [{"measurement": "P-gp inhibition", "setting": "P-gp [1]; 10 μM Compound 1", "value": "no P-gp inhibition"}, {"measurement": "Reduction of efflux ratio of digoxin (10 μM) across Caco-2 cells", "setting": "P-gp [1]; 100 μM Compound 1", "value": 50, "unit": "%"}, {"measurement": "efflux ratio at 1 μM", "setting": "P-gp [2]; MDCK-MDR1, 1 μM", "value": 1.12}, {"measurement": "efflux ratio at 10 μM", "setting": "P-gp [2]; MDCK-MDR1, 10 μM", "value": 3.17}, {"measurement": "recovery", "setting": "P-gp [2]; MDCK-MDR1, MDCKII-P-gp assay", "value": "18 to 60", "unit": "%"}, {"measurement": "IC50", "setting": "OCT2", "value": "> 10", "unit": "µM"}, {"measurement": "Gender difference in mean plasma concentrations and exposure parameters", "setting": "[3]", "value": "only moderately higher in females compared to males"}, {"measurement": "Extent of metabolism (overall)", "setting": "[4]", "value": "> 25", "unit": "%"}, {"measurement": "Induction potential for CYP3A4", "setting": "CYP3A4", "value": "no induction potential; also recorded: not a potential inducer"}, {"measurement": "IC50", "setting": "P-gp [5]", "value": "~100", "unit": "µM"}, {"measurement": "IC50", "setting": "OATP1B1", "value": "~10", "unit": "µM"}, {"measurement": "inhibition at 10 µM", "setting": "UGT1A1", "value": "≤ 28", "unit": "%"}, {"measurement": "inhibition at 10 µM", "setting": "UGT1A6", "value": "≤ 48", "unit": "%"}]}]}
